For the series, the target named is T1, CYP2B6 (Homo sapiens, UniProt P20813).
T1 construct: incubation mixtures containing pooled human liver microsomes (HLMs, XTreme 200, XenoTech); tissue XenoTech XTreme 200; host or cells: pooled human liver microsomes
T1 sequence (P20813 1-491): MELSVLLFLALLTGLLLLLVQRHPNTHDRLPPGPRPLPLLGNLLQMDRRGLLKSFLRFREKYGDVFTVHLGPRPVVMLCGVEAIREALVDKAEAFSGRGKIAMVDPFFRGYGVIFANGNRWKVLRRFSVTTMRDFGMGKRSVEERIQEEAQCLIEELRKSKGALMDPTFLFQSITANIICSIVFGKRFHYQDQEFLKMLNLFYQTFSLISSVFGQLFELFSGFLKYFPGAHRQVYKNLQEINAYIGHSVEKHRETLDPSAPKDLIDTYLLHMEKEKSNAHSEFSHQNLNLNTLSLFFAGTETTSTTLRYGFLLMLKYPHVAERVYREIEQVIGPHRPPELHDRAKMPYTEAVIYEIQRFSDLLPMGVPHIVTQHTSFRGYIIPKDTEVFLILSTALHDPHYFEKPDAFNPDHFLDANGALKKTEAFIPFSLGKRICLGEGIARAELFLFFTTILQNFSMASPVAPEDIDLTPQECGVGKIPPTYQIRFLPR
As to the kind of experiment: Inhibition of CYP2B6-catalyzed bupropion hydroxylation in pooled human liver microsomes. It counts as in vitro ADME. As for the experimental part: The inhibitory potential of the five biflavonoids on the metabolism of nine P450 probe substrates was evaluated using previously developed methods with minor modifications. Biflavonoids were dissolved in methanol. The final concentration of methanol in the incubation mixture was 1.0% (v/v). We used these P450 probe substrates: phenacetin for CYP1A2, coumarin for CYP2A6, bupropion for CYP2B6, amodiaquine for CYP2C8, diclofenac for CYP2C9, omeprazole for CYP2C19, dextromethorphan for CYP2D6, chlorzoxazone for CYP2E1 and midazolam for CYP3A (Table 1). […] The reaction was stopped by adding 50 μL of ice-cold acetonitrile containing 7 nM trimipramine (internal standard, IS). After centrifugation at 18,000 g (5 min, 4 °C), aliquots of supernatants were analyzed by LC-MS/MS (Shimadzu LCMS 8060 system, Shimadzu, Kyoto, Japan). All microsomal incubations were conducted in triplicate. We used HLMs to determine the mechanisms and constants (Ki values) for […] A inhibition of CYP1A2, CYP2B6, CYP2C8, CYP2C9 and CYP3A. […] The substrates were used at concentrations approximately near to their respective Km values. […] The other conditions were the same as in the cytochrome P450 inhibition study. […] Phenomenex, Torrance, CA, USA) and analyzed using a Shimadzu LCMS 8060 triple-quadrupole mass spectrometer coupled with a Nexera X2 ultra high-performance liquid chromatography system (Shimadzu, Kyoto, Japan) equipped with an electrospray ionization interface. The mobile phase consisted of 0.1% formic acid in water (A) and 0.1% formic acid in acetonitrile (B). […] The flow rate was 0.2 mL/min. Electrospray ionization was performed in positive-ion mode at 4000 V or in negative-ion mode at -3500 V. […] Quantitation was conducted in selected reaction monitoring (SRM) modes with the precursor-to-product ion transition for each metabolite (Table 1 and Table 2). We analyzed the data with Shimadzu LabSolution LC-MS software. The IC50 values were calculated by WinNonlin software (Pharsight, Mountain View, CA, USA). The type of inhibition and the apparent kinetic parameters for inhibitory activity (Ki) were determined by following several criteria: visual inspection of Dixon plots, Lineweaver-Burk double reciprocal plots, and secondary plots of Lineweaver-Burk plots versus biflavonoid concentrations, the size of the sum of squares of the residuals, Akaike Information Criteria values, the S.E. and 95% confidence interval of the parameter estimates from the nonlinear regression analysis using the WinNonlin software. The models tested included competitive, competitive partial, noncompetitive, noncompetitive partial, uncompetitive, uncompetitive partial, and mixed-type inhibition.
For orientation: Liver microsomes are a subcellular fraction often used to study metabolism.

Where [1] appears, read: substrate bupropion 50 µM, pooled HLMs, read-out: IC50, P450 2B6.

SMILES strings stand for the structures. Read-outs that look alike come from different tables or passages of the source. A value given as a limit tells only on which side of the number the result lay.

In the case of `O=c1cc(-c2ccc(O)c(-c3c(-c4ccc(O)cc4)oc4cc(O)cc(O)c4c3=O)c2)oc2cc(O)cc(O)c12` [taiwaniaflavone], the IC50 (in general, the midpoint of a concentration-inhibition curve) under setting [1] came to 6.4 µM. Take `O=C1CC(c2cc(-c3c(O)ccc4c(=O)cc(-c5ccc(O)cc5)oc34)c(O)cc2O)Oc2cc(O)cc(O)c21` (stereo not drawn) [selamariscina A]: where the note is “HLMs”, the “Mode of Inhibition, CYP2B6 bupropion” value was “Noncompetitive”. For the setting “HLMs, average ± standard error, triplicate”, the Ki – broadly, a measure of affinity in units of concentration, obtained from inhibition or displacement – amounted to 7.9 ± 1.1 µM. For the same compound, the IC50 under setting [1] worked out at 5.3 µM. For `O=c1cc(-c2ccc(O)cc2)oc2c(-c3c(O)cc(O)c4c(=O)cc(-c5ccc(O)cc5)oc34)c(O)cc(O)c12` [cupressuflavone], the IC50 under setting [1] turned out to be 6.7 µM.

In the case of `O=c1cc(-c2ccc(O)c(-c3c(O)cc4oc(-c5ccc(O)cc5)cc(=O)c4c3O)c2)oc2cc(O)cc(O)c12` [robustaflavone], the IC50 under setting [1] was 5.7 µM. In turn, `O=c1cc(-c2ccc(O)c(-c3c(O)cc(O)c4c(=O)cc(-c5ccc(O)cc5)oc34)c2)oc2cc(O)cc(O)c12` [amentoflavone] yielded an IC50 of 7.1 µM.

With `CC(C)(O)c1ccccc1CC[C@@H](SCC1(CC(=O)O)CC1)c1cccc(/C=C/c2ccc3ccc(Cl)cc3n2)c1` [montelukast, reference compound], the inhibition (commonly the share of the control response that was lost under treatment) at 10 min, 5 µM (human, pooled human liver microsomes, probe bupropion, inhibitor 5 μM, pooled HLMs) is 20.4%. Under setting [1], the IC50 was greater than 50 µM.

These data come from PMC7238120, “Strong and Selective Inhibitory Effects of the Biflavonoid Selamariscina A against CYP2C8 and CYP2C9 Enzyme Activities in Human Liver Microsomes” (Pharmaceutics, 2020).
